According to ChEMBL document CHEMBL1152560, “Substituted 2-arylbenzothiazoles as kinase inhibitors: hit-to-lead optimization” (Bioorg Med Chem, 2009):

Experiments:
[1] = target: T1, Cytoplasmic tyrosine-protein kinase BMX (Homo sapiens) (UniProt P51813); assay: Residual activity of BMX at 1 uM by microplate scintillation counting
T1 sequence (whole entry): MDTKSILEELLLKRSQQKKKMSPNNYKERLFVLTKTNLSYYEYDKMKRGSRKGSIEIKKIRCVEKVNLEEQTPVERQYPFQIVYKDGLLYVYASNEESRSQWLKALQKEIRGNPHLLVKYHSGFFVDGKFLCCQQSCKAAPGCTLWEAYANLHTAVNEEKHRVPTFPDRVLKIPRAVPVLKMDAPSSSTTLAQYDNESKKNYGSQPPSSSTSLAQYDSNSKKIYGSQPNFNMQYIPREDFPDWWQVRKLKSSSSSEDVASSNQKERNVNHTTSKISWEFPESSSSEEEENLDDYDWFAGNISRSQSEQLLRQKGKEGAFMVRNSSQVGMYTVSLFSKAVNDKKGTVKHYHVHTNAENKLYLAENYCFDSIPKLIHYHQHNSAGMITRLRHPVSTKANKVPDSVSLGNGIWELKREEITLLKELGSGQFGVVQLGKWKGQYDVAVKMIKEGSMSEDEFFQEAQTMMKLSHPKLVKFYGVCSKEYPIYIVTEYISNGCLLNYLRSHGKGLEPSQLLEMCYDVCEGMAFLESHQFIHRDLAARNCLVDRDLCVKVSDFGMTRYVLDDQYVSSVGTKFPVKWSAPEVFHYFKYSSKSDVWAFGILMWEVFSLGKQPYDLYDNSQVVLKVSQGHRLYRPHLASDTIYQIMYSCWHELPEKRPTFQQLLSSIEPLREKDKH

[2] = target: Homeodomain-interacting protein kinase 3 (Homo sapiens) (UniProt Q9H422); assay: Residual activity of HIPK3 at 1 uM by microplate scintillation counting
[3] = system: Fibroblast growth factor receptor 1 (Homo sapiens), P11362 [V561M]; assay: Residual activity of FGFR1 V561M mutant at 1 uM by microplate scintillation counting
[4] = target: Mitogen-activated protein kinase 11 (Homo sapiens) (UniProt Q15759); assay: Residual activity of p38beta at 10 uM by microplate scintillation counting
[5] = target: T2, Serine/threonine-protein kinase 3 (Homo sapiens) (UniProt Q13188); assay: Residual activity of MST2 at 0.1 uM by microplate scintillation counting
T2 sequence (whole entry): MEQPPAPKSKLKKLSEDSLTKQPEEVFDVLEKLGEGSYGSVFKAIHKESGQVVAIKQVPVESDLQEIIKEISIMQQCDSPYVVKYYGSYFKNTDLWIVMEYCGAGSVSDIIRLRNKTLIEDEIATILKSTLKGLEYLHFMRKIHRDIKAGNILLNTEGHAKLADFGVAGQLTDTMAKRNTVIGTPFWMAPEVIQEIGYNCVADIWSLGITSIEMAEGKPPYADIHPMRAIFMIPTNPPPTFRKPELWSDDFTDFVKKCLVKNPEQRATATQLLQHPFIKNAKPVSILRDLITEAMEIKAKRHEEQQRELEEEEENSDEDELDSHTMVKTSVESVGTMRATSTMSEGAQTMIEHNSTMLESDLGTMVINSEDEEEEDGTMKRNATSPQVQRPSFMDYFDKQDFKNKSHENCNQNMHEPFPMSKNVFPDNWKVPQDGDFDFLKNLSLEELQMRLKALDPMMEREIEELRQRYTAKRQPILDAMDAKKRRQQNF

[6] = target: Mitogen-activated protein kinase 10 (Homo sapiens) (UniProt P53779); assay: Residual activity of JNK3 at 1 uM by microplate scintillation counting
[7] = target: T3, Ephrin type-A receptor 8 (Homo sapiens) (UniProt P29322); assay: Residual activity of EPHA8 at 10 uM by microplate scintillation counting
T3 sequence (whole entry): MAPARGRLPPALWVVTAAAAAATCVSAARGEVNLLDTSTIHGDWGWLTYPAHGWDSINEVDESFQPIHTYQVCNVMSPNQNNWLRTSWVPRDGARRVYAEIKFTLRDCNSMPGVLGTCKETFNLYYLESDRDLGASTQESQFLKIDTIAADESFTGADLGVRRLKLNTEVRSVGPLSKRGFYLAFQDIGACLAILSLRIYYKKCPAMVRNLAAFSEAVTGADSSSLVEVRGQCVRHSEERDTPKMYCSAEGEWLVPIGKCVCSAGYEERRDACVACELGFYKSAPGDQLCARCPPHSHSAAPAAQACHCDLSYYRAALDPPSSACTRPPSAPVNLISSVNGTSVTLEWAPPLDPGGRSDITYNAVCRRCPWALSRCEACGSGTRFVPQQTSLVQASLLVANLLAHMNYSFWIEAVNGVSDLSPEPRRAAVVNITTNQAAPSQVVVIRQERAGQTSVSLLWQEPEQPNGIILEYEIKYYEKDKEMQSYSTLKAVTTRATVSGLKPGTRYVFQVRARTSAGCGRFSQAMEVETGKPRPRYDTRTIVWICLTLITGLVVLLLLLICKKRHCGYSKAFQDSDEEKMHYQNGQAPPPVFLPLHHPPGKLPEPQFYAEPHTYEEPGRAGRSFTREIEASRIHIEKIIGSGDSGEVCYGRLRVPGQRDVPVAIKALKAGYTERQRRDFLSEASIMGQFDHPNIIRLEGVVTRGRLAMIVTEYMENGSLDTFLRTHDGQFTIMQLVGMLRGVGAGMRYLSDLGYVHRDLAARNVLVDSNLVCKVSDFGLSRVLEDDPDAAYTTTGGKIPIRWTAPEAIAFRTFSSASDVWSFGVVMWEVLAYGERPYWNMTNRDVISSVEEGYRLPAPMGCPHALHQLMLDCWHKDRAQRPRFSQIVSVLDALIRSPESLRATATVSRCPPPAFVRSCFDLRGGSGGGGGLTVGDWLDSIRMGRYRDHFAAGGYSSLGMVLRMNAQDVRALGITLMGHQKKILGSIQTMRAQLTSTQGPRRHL

Chain of Fibroblast growth factor receptor 1 (Homo sapiens), P11362 [V561M] (P11362 whole entry V561M): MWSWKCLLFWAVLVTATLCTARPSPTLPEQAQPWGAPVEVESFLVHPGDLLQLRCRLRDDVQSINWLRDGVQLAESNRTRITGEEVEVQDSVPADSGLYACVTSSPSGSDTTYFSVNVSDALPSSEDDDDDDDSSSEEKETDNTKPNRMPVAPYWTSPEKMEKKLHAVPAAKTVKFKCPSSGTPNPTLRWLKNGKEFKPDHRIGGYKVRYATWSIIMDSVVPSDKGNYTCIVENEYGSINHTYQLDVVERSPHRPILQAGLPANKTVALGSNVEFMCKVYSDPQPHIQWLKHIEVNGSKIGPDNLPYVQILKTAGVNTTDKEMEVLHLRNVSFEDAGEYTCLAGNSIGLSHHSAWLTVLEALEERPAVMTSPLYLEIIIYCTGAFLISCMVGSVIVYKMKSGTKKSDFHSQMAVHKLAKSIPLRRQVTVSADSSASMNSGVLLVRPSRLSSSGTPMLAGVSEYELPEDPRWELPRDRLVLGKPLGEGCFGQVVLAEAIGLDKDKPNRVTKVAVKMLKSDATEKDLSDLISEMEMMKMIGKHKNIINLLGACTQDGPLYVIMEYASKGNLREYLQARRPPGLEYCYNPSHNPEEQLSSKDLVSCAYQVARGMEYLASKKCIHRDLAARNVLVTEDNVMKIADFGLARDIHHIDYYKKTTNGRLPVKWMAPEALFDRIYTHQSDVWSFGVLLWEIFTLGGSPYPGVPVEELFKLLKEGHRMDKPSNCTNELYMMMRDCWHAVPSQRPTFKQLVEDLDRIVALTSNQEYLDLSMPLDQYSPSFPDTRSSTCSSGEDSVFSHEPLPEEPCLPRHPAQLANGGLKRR
Chain of Homeodomain-interacting protein kinase 3 (Homo sapiens) (Q9H422 whole entry, looked up): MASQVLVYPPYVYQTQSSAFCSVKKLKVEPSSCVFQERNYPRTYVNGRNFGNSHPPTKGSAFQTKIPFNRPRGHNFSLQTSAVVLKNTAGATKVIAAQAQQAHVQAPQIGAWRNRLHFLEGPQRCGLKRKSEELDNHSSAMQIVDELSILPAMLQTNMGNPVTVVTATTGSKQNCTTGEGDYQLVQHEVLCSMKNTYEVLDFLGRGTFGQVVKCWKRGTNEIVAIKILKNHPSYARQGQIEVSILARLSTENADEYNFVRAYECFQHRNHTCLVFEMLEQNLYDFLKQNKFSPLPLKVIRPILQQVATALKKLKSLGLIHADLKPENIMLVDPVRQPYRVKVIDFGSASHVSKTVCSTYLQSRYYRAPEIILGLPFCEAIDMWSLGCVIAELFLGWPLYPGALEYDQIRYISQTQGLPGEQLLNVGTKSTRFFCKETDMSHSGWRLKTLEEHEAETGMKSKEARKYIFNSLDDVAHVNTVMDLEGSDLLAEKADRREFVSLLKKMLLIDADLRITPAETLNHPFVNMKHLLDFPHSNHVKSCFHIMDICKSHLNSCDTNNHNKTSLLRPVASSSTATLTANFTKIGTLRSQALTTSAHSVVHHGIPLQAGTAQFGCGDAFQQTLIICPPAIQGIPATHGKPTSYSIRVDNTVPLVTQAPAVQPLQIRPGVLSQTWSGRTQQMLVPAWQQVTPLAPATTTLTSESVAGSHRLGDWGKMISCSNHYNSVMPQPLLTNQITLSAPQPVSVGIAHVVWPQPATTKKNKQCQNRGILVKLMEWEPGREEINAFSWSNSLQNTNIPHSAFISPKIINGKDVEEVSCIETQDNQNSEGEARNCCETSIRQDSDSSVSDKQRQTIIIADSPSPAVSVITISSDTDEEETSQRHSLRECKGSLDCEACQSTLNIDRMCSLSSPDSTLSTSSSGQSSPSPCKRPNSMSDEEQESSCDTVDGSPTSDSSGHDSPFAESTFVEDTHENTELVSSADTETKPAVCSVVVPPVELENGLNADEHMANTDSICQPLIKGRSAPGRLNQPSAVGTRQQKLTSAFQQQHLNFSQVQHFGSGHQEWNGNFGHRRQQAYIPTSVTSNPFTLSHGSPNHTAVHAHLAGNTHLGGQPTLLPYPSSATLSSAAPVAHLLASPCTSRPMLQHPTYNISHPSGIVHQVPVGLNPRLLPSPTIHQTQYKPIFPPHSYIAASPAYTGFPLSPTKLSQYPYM
Chain of Mitogen-activated protein kinase 11 (Homo sapiens) (Q15759 whole entry): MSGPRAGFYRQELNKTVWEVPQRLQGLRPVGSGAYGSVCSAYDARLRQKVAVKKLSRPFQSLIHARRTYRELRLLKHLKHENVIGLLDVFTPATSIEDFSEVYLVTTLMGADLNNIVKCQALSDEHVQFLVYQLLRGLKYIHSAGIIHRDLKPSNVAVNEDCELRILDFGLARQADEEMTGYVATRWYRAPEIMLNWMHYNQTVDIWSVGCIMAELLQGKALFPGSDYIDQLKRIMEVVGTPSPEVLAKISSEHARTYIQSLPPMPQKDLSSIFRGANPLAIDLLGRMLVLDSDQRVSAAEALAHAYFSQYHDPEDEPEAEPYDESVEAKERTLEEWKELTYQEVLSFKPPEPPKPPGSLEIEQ
Chain of Mitogen-activated protein kinase 10 (Homo sapiens) (P53779 whole entry): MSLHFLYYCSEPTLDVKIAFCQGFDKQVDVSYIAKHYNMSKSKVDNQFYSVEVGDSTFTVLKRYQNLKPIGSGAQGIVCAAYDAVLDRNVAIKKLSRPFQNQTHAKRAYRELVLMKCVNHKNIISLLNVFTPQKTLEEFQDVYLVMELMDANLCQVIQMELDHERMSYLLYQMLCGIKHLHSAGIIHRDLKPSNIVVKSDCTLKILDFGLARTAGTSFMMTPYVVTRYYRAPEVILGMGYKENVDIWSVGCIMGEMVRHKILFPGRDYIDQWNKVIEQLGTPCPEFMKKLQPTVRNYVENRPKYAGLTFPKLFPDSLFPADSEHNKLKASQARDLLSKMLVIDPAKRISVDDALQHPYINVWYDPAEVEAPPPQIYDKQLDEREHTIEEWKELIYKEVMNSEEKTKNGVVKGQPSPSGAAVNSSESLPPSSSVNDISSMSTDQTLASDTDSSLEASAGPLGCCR

residual activity [1] [%] | residual activity [2] [%] | residual activity [3] [%] | residual activity [4] [%] | residual activity [5] [%] | residual activity [6] [%] | residual activity [7] [%] | Compound
127 | 86 | 102 | 337 | 82 | 97 | 185 | COc1cc2c(Oc3ccc(-c4nc5ccccc5s4)cc3)ncnc2cc1OCCCN1CCCC1
122 | 84 | 103 | 350 | 90 | 106 | 273 | COc1cc2c(Oc3ccc(-c4nc5ccccc5s4)cc3)ncnc2cc1OCCCN1CCN(C)CC1
128 | 81 | 93 | 337 | 92 | 101 | 114 | COc1cc2c(Oc3ccc(-c4nc5ccccc5s4)cc3F)ncnc2cc1OCCCN1CCN(C)CC1
